# Compound: Cc1cnc(CNC(=O)c2c(=O)c3ccc(N4CCCN(C)CC4)nc3n3c2sc2ccccc23)cn1 [CX-5461] + C[C@]1(O)C[C@@H](c2nc(-c3ccc4ccc(-c5ccccc5)nc4c3)c3c(N)nccn32)C1 [Linsitinib] (partner 1 µM)
# Assay: relative viability (nuclei count vs DMSO), 5 days (fraction); higher = more cells survive
# Conditions: first compound 1 µM
# Method in brief: (§1)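 Lung cancer cell lines were pin-tool dosed in 1536-well plates on the day after seeding, with either a lone drug or a fixed anchor-drug dose plus five library-drug doses (not always all listed) in √10 steps. Nuclei were counted on 4× images after 5 days. Relative viability is the ratio of treated-well to vehicle-well nuclei counts, with each value a median of duplicate plates.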
row,Cell Line,relative viability
1,HCC-44,0.644
2,A549,0.544
3,NCI-H441,0.629
4,NCI-H1793,0.752
5,NCI-H1299,0.831

# Compound: Cc1cnc(CNC(=O)c2c(=O)c3ccc(N4CCCN(C)CC4)nc3n3c2sc2ccccc23)cn1 [CX-5461] + CS(=O)(=O)CCNCc1ccc(-c2ccc3ncnc(Nc4ccc(OCc5cccc(F)c5)c(Cl)c4)c3c2)o1 [Lapatinib] (partner 2 µM)
# Assay: as above
# Conditions: first compound 0.01 µM
# Method in brief: as §1
row,Cell Line,relative viability
1,NCI-H727,0.862
2,NCI-H1650,0.714
3,EBC-1,0.214
4,NCI-H1703,1.2
5,NCI-H1993,0.769
6,SK-LU-1,0.948
7,NCI-H838,1.17
8,NCI-H520,0.782
9,NCI-H2126,0.786
10,EMC-BAC-2,0.861
11,NCI-H2085,0.806
12,Calu-6,1.04
13,HCC-366,1.14
14,NCI-H1666,0.733
15,NCI-H596,1.07
16,NCI-H1395,0.955
17,NCI-H2087,1.13
18,H3255,0.237
19,COR-L23,1.08
20,COR-L 105,0.363
21,IA-LM,0.692
22,LOU-NH91,0.63
23,NCI-H358,0.389
24,NCI-H2405,1.18
25,HOP-62,1.11
26,HCC-44,0.972
27,A549,0.989
28,NCI-H1793,0.693
29,NCI-H1299,0.945
30,NCI-H2170,0.305

# Same assay, conditions: first compound 0.03162 µM
row,Cell Line,relative viability
1,NCI-H727,0.997
2,NCI-H1650,0.714
3,EBC-1,0.191
4,NCI-H1703,1.45
5,NCI-H1993,0.84
6,SK-LU-1,0.837
7,NCI-H838,1.11
8,NCI-H520,0.692
9,NCI-H2126,0.803
10,EMC-BAC-2,1.04
11,NCI-H2085,0.718
12,Calu-6,1.16
13,HCC-366,1
14,NCI-H1666,0.637
15,NCI-H596,1.09
16,NCI-H1395,0.899

row,Cell Line,relative viability
1,NCI-H2087,1.18
2,LK-2,1.06
3,H3255,0.236
4,COR-L23,0.833
5,COR-L 105,0.405
6,IA-LM,0.748
7,LOU-NH91,0.811
8,NCI-H358,0.447
9,NCI-H2405,1.07
10,HOP-62,1.12
11,HCC-44,1.01
12,A549,1.04
13,NCI-H1793,0.628
14,NCI-H1299,0.975
15,NCI-H2170,0.261

# Same assay, conditions: first compound 0.1 µM
row,Cell Line,relative viability
1,NCI-H727,0.682
2,EBC-1,0.244
3,NCI-H1703,1.1
4,NCI-H1993,0.881
5,SK-LU-1,0.852
6,NCI-H838,1.05
7,NCI-H520,0.784
8,NCI-H2126,0.727
9,EMC-BAC-2,0.88
10,NCI-H2085,0.667
11,Calu-6,0.964
12,HCC-366,0.812
13,NCI-H596,0.96
14,NCI-H1395,0.716
15,NCI-H2087,1.18
16,LK-2,1.01
17,H3255,0.263
18,COR-L23,0.674
19,COR-L 105,0.376
20,IA-LM,0.715
21,LOU-NH91,0.747
22,NCI-H358,0.392
23,NCI-H2405,1.18
24,HOP-62,1.23
25,HCC-44,0.994
26,A549,0.698
27,NCI-H1793,0.819
28,NCI-H1299,1
29,NCI-H2170,0.283

# Same assay, conditions: first compound 0.3162 µM
row,Cell Line,relative viability
1,NCI-H727,0.729
2,NCI-H1650,0.229
3,EBC-1,0.2
4,NCI-H1703,1.14
5,NCI-H1993,0.802
6,SK-LU-1,0.96
7,NCI-H838,0.252
8,NCI-H520,0.619
9,NCI-H2126,0.622
10,EMC-BAC-2,0.693
11,NCI-H2085,0.324
12,Calu-6,0.998
13,HCC-366,0.04
14,NCI-H1666,0.55
15,NCI-H596,1.1
16,NCI-H1395,0.571
17,NCI-H2087,0.407
18,H3255,0.167
19,COR-L23,0.804
20,COR-L 105,0.265
21,IA-LM,0.669
22,LOU-NH91,0.442
23,NCI-H358,0.267
24,NCI-H2405,0.541
25,HOP-62,0.167
26,HCC-44,1.01
27,A549,0.867
28,NCI-H1793,0.399
29,NCI-H1299,0.982
30,NCI-H2170,0.207

# Same assay, conditions: first compound 1 µM
row,Cell Line,relative viability
1,NCI-H727,0.631
2,NCI-H1650,0.19
3,EBC-1,0.208
4,NCI-H1703,0.502
5,NCI-H1993,0.762
6,SK-LU-1,0.535
7,NCI-H838,0.6
8,NCI-H520,0.491
9,NCI-H2126,0.72
10,EMC-BAC-2,0.588
11,NCI-H2085,0.615
12,Calu-6,0.405
13,HCC-366,0.0982
14,NCI-H1666,0.398
15,NCI-H596,0.628
16,NCI-H1395,0.563

row,Cell Line,relative viability
1,NCI-H2087,0.507
2,LK-2,0.817
3,H3255,0.236
4,COR-L23,0.414
5,COR-L 105,0.267
6,IA-LM,0.475
7,LOU-NH91,0.68
8,NCI-H358,0.306
9,NCI-H2405,0.808
10,HOP-62,0.908
11,HCC-44,0.69
12,A549,0.0911
13,NCI-H1793,0.643
14,NCI-H1299,0.866
15,NCI-H2170,0.296
